Reference: patent US10912749B2, “Conjugate acid salt of N,N-dimethylglycine with organic acid, and composition and use thereof” (GUANGZHOU INSIGHTER BIOTECHNOLOGY CO., LTD., priority 2017, dated 2021)
Where a name gives a salt, the structure may show the parent alone. Marks after values point to notes of the source that are not given here.

Key:
[1] = High-humidity stability test; format: physicochemical; details: for hygroscopicity (in words): 25° C. and RH 95%, weight gains at day 5 turned the samples into water-like status; for hygroscopic weight gain Day 5 (%) / hygroscopic weight gain Day 10 (%): 25° C., RH 95%±1%, mean value±standard error, three parallels
Experimental: Method: A KNO3 saturated solution (25° C., […]) was placed in the lower part of a constant-temperature and constant-humidity sealed container. The test samples, three parallels for each test sample, were placed at 25° C. and RH 95%±1% for 10 days, and their average weight gains were measured at day 5 and day 10.

Sanhuang broilers = assay: Breeding experiment in broiler feed (production performance); format: in vivo
Experimental: The experiment was carried out by single-factor randomized design. 1080 22-day-old Sanhuang broilers having similar body weight (averagely 153 g) were collected and randomly divided into 9 groups, 6 replicates in each group, 20 broilers in each replicate, with equal numbers of males and females. The henhouse and utensils were disinfected before the experiment. The broilers were kept in cages in the same henhouse under the same breeding conditions during the experiment. The basic diets mainly composed of corn and soybean meal, and no other antioxidant ingredients and growth promoters were added during the whole breeding process. The groups included a blank group, a control group, and experiment groups 1-7. […] For each replicate, the broilers were weighed (stopped feeding for 12 hours while water supply was maintained) at 42-day-old and their feed consumptions were recorded so as to calculate the average daily feed intake (ADFI), average daily weight gain (ADG) and feed conversion ratio (FCR). The experiment data were analyzed with SPSS18 software. The data were first analyzed by single factor analysis of variance (ANOVA), and if the differences between the groups were significant, multiple comparisons were performed using Duncan's method wherein the significance level was 0.05.

grass carps = assay: Growth promotion experiment in aquatic feed; format: in vivo; details: 450 ppm in feed, 8 weeks; for SR (%): survival rate
Experimental: Test fish: The experiment fish were grass carps, born at the year of the test, from Dafeng hatchery in Huizhou City, Guangdong Province. Healthy and lively grass carps of the same size were reared in big net cages (4×2×1.5 m^3) for four weeks before the breeding experiment. The experiment system included floating small net cages (1.1×1.1×1.1 m^3), each small net cage was provided with an aerator and aerated 24 hours every day. […] 384 fish which were similar in body weight and had been starved for 1 day were randomly divided into 8 groups, 4 replicates in each group and 12 fish in each replicate. The fish of each replicate were weighed and transferred to […] net cages, and fed with different test feeds respectively.
Experiment feeds: The experiment feeds were prepared according to Table 6. The groups were respectively provided with different conjugate acid salts of N,N-dimethylglycine with metal and organic acid in the same concentration according to Table 7. Raw materials of the feed were ultra-pulverized, and then turned into floating expanded feed having a particle size of 3 mm by using a feed extruder from Jiangsu Muyang Group Co., Ltd. wherein the extruding temperature was 130° C., and 3% of soybean oil was sprayed on the feed using an oil sprayer. The feed was then sealed and stored in a cool place for later use.
Test management: The experiment was carried out with diet restriction, the diet amount was adjusted once a week, the feeding level (based on initial weight) of each group was exactly the same, and feeding was conducted twice every day (at 7:30 and 15:00). The experiment was carried out for 8 weeks. During the experiment, water quality was monitored regularly to maintain the following conditions: water temperature 26.88±3.08° C., DO>5.0 mg O L^−1, pH 7.8, ammonia nitrogen <0.50 mg N L^−1, and nitrite nitrogen <0.05 mg N L^1.
Parameter statistics: In the experiment, the fish in each net cage were weighed as a whole after starved for 1 day so as to calculate their weight gain (WG, %), feed conversion ratio (FCR) and survival rate (SR, %), through the following formula. Weight gain (WG, %)=100×(average final weight−average initial weight)/average initial weight Feed conversion ratio (FCR)=feed intake/fish weight gain Survival rate (SR, %)=100×fish amount at the end of the test/fish amount at the beginning of the test

Row | Compound | hygroscopicity (in words) [1] | hygroscopic weight gain Day 5 (%) [1] [%] | hygroscopic weight gain Day 10 (%) [1] [%] | breeding effect with respect to feed conversion efficiency compared with sodium N,N-dimethylglycinate (Sanhuang broilers) | (FCR) (grass carps) | Final weight (grass carps) [g] | Weight gain (%) (grass carps) | SR (%) (grass carps)
1 | CN(C)CC(=O)O.Cl [Sample 1, N,N-dimethylglycine hydrochloride] | very high hygroscopicity | 79.86 ± 0.94 | 80.69 ± 0.59 |  |  |  |  | 
2 | CN(C)CC(=O)[O-].[Na+] [Sample 2, Sodium N,N-dimethylglycinate] | very high hygroscopicity | 49.09 ± 1.14 | 52.44 ± 0.48 |  |  |  |  | 
3 | CN(C)CC(=O)[O-].CN(C)CC(=O)[O-].O=C(O)c1ccccc1.O=C(O)c1ccccc1.[Ca+2] [Sample 5, Conjugate acid salt of calcium N,N-dimethylglycinate with benzoic acid] |  |  | 3.69 ± 0.28 | equivalent to that of sodium N,N-dimethylglycinate | 1.48 ± 0.03 | 586.87 ± 10.44 | 134.96 ± 2.82 | 83.10 ± 3.65^b %
4 | CN(C)CC(=O)[O-].CN(C)CC(=O)[O-].O=C(O)/C=C/C(=O)O.[Ca+2] [Sample 6, Conjugate acid salt of calcium N,N-dimethylglycinate with fumaric acid] |  |  |  |  | 1.48 ± 0.03 | 589.33 ± 12.75 | 138.98 ± 3.02 | 83.90 ± 5.30^b %
5 | CCCCCCCCCCCCCC(=O)O.CCCCCCCCCCCCCC(=O)O.CN(C)CC(=O)[O-].CN(C)CC(=O)[O-].[Ca+2] [Sample 7, Conjugate acid salt of calcium N,N-dimethylglycinate with tetradecanoic acid] |  |  | 3.06 ± 0.29 |  | 1.46 ± 0.04 | 585.22 ± 11.23 | 134.40 ± 2.90 | 73.00 ± 3.63^b %
6 | CN(C)CC(=O)[O-].CN(C)CC(=O)[O-].O=C(O)c1ccccc1.O=C(O)c1ccccc1.[Cu+2] [Sample 8, Conjugate acid salt of copper N,N-dimethylglycinate with benzoic acid] |  |  |  |  | 1.41 ± 0.03 | 598.68 ± 9.66 | 143.40 ± 10.09 | 80.04 ± 3.80^b %
7 | CN(C)CC(=O)[O-].CN(C)CC(=O)[O-].O=C(O)/C=C/C(=O)O.[Cu+2] [Sample 9, Conjugate acid salt of copper N,N-dimethylglycinate with fumaric acid] |  |  |  |  | 1.43 ± 0.03 | 598.12 ± 9.27 | 139.12 ± 2.34 | 83.96 ± 5.68^b %
8 | CN(C)CC(=O)[O-].CN(C)CC(=O)[O-].O=C(O)c1ccccc1.O=C(O)c1ccccc1.[Zn+2] [Sample 10, Conjugate acid salt of zinc N,N-dimethylglycinate with benzoic acid] |  |  |  |  | 1.45 ± 0.03 | 597.66 ± 9.69 | 133.08 ± 4.70 | 78.04 ± 4.21^b %
9 | CN(C)CC(=O)[O-].CN(C)CC(=O)[O-].O=C(O)/C=C/C(=O)O.[Zn+2] [Sample 11, Conjugate acid salt of zinc N,N-dimethylglycinate with fumaric acid] |  |  |  |  | 1.44 ± 0.02 | 600.00 ± 9.30 | 139.98 ± 3.58 | 84.94 ± 4.26^b %
10 | CN(C)CC(=O)[O][Zn][O]C(=O)CN(C)C [Sample 11, Conjugate acid salt of zinc N,N-dimethylglycinate with fumaric acid] |  |  | 2.88 ± 0.22 |  |  |  |  | 
11 | Calcium N,N-dimethylglycinate [Sample 3] | very high hygroscopicity | 38.40 ± 0.22 | 41.83 ± 0.35 |  |  |  |  | 
